In patent US12043600B2, “Microbiocidal compounds” (SYNGENTA CROP PROTECTION AG, priority 2018, dated 2024) one finds pest or weed control, inhibition of growth and melting point data, which are given here for ten compounds.

Read-outs that look alike come from different tables or passages of the source. Where only a bound is given, the exact number is not on record here.

For series [1], the system named is Phaeosphaeria nodorum (Septoria nodorum). Description: Phaeosphaeria nodorum (Septoria nodorum)/Wheat/Leaf Disc Preventative (Glume Blotch). The note with it: Parastagonospora nodorum, foliar, wheat leaf disc preventative, compared to untreated control. The format is in vivo. As for the experimental part: Wheat leaf segments cv. Kanzler are placed on agar in a multiwell plate (24-well format) and sprayed with the formulated test compound diluted in water. The leaf disks are inoculated with a spore suspension of the fungus 2 days after application. The inoculated test leaf disks are incubated at 20° C. and 75% rh under a light regime of 12 h light/12 h darkness in a climate cabinet and the activity of a compound is assessed as percent disease control compared to untreated when an appropriate level of disease damage appears in untreated check leaf disks (5-7 days after application).

The subject of series [2] is Monographella nivalis (Microdochium nivale). Description: Monographella nivalis (Microdochium nivale)/Liquid Culture (Foot Rot Cereals). It counts as cell-based. The settings on record: liquid culture, compared to untreated control. As for the experimental part:
(§1) Conidia of the fungus from cryogenic storage are directly mixed into nutrient broth (PDB potato dextrose broth). After placing a (DMSO) solution of test compound into a microtiter plate (96-well format), the nutrient broth containing the fungal spores is added.

Series [3] deals with Mycosphaerella arachidis (Cercospora arachidicola). The experiment in a line: Mycosphaerella arachidis (Cercospora arachidicola)/Liquid Culture (Early Leaf Spot). The format is cell-based. The note with it: liquid culture, compared to untreated control. The procedure:
as §1

Series [4] concerns Plasmopara viticola. Description: whole plant or invertebrate. The note with it: foliar, read-out: control of Plasmopara viticola. It counts as in vivo.
The subject of series [5] is Puccinia recondita f. sp. tritici. Description: Puccinia recondita f. sp. tritici/Wheat/Leaf Disc Curative (Brown Rust). It counts as in vivo. The note with it: foliar, wheat leaf disc curative, compared to untreated control. The procedure: Wheat leaf segments cv. Kanzler are placed on agar in multiwell plates (24-well format). The leaf segments are inoculated with a spore suspension of the fungus. Plates are stored in darkness at 19° C. and 75% rh. The formulated test compound diluted in water is applied 1 day after inoculation. The leaf segments are incubated at 19° C. and 75% rh under a light regime of 12 h light/12 h darkness in a climate cabinet and the activity of a compound is assessed as percent disease control compared to untreated when an appropriate level of disease damage appears in untreated check leaf segments (6-8 days after application).

For series [6] the test system is unchanged. Description: Puccinia recondita f. sp. tritici/Wheat/Leaf Disc Preventative (Brown Rust). The format is in vivo. The note with it: foliar, 200 ppm, wheat leaf disc preventative, compared to untreated control, read-out: control of Puccinia recondita f. sp. tritici.
Series [7] deals with Magnaporthe grisea (Pyricularia oryzae). Description: whole plant or invertebrate. It counts as in vivo. The settings on record: foliar, read-out: control of Magnaporthe grisea.
In series [8] the test system is Mycosphaerella graminicola (Septoria tritici). The experiment in a line: Mycosphaerella graminicola (Septoria tritici)/Liquid Culture (Septoria Blotch). The format is cell-based. The settings on record: Zymoseptoria tritici; 20 ppm; liquid culture; compared to untreated control. The procedure: Conidia of the fungus from cryogenic storage are directly mixed into nutrient broth (PDB potato dextrose broth). After placing a (DMSO) solution of test compound into a microtiter plate (96-well format), the nutrient broth containing the fungal spores is added. […] The data are presented as the percentage of disease control of each compound for the biological tests against G. lagenarium (Example B3), P. recondita preventative (Example B13), P. teres (Example B15) and M. graminicola (Example B19) as described above. The testing rates of each biological test is specifically described in table C1 below.

Series [9] relates to Glomerella lagenarium (Colletotrichum lagenarium). The experiment in a line: Glomerella lagenarium (Colletotrichum lagenarium)/Liquid Culture (Anthracnose). The format is cell-based. The settings on record: Colletotrichum orbiculare, liquid culture, compared to untreated control.
Series [10] deals with Blumeria graminis f. sp. tritici (Erysiphe graminis f. sp. tritici). The experiment in a line: Blumeria graminis f. sp. tritici/Wheat/Leaf Disc Preventative (Powdery Mildew on Wheat). It counts as in vivo. The settings on record: foliar, wheat leaf disc preventative, compared to untreated control. As for the experimental part:
Wheat leaf segments cv. Kanzler are placed on agar in a multiwell plate (24-well format) and sprayed with the formulated test compound diluted in water. The leaf disks are inoculated by shaking powdery mildew infected plants above the test plates 1 day after application. The inoculated leaf disks are incubated at 20° C. and 60% rh under a light regime of 24 h darkness followed by 12 h light/12 h darkness in a climate chamber and the activity of a compound is assessed as percent disease control compared to untreated when an appropriate level of disease damage appears on untreated check leaf segments (6-8 days after application).

Series [11] relates to Phytophthora infestans. Description: whole plant or invertebrate. It counts as in vivo. The settings on record: in Solanum lycopersicum, foliar, read-out: control of Phytophthora infestans.
The subject of series [12] is Botryotinia fuckeliana (Botrytis cinerea). Description: Botryotinia fuckeliana (Botrytis cinerea)/Liquid Culture (Gray Mould). The format is cell-based. The settings on record: liquid culture, compared to untreated control. As for the experimental part:
Conidia of the fungus from cryogenic storage are directly mixed into nutrient broth (Vogels broth). After placing a (DMSO) solution of test compound into a microtiter plate (96-well format), the nutrient broth containing the fungal spores is added.

Series [13] deals with Phakopsora pachyrhizi. Description: Phakopsora pachyrhizi/Soybean/Preventative (Soybean Rust). The format is in vivo. The settings on record: 288 h.
The mark [14] stands for this setting: foliar, soybean leaf disc preventative, compared to untreated control, read-out: control of Phakopsora pachyrhizi.

With `CO/C=C(\Oc1cc(-n2cc(Cl)c(C(C)C)n2)ccc1C)C(=O)OC` [Compound E-11, methyl (Z)-2-[5-(4-chloro-3-isopropyl-pyrazol-1-yl)-2-methyl-phenoxy]-3-methoxy-prop-2-enoate], the melting point (commonly the temperature, or range, at which the solid turns liquid) was 95 to 100 °C. Also, in series [1], the pest or weed control at 200 ppm is not below 80%. The inhibition of growth (in general, the percentage by which the read-out fell short of the control) at 20 ppm in series [2] is not below 80%. For the same compound, the inhibition of growth at 20 ppm in series [3] was not below 80%. The pest or weed control at 200 ppm in series [4] is not below 80%. In [5], this compound came in with a pest or weed control at 200 ppm not below 80%. Besides, the pest or weed control at 200 ppm in [6] is not below 80%. Besides, in [7], the pest or weed control at 200 ppm was not below 80%. This compound also displayed an inhibition of growth at 20 ppm in series [8] not below 80%.
Take `CO/C=C(\Oc1cc(-n2ccc(C3CC3(F)F)n2)ccc1C)C(=O)OC` (centres unmarked) [Compound E-26, methyl (Z)-2-[5-[3-(2,2-difluorocyclopropyl)pyrazol-1-yl]-2-methyl-phenoxy]-3-methoxy-prop-2-enoate]: the inhibition of growth at 20 ppm in [9], in series [2], in series [3] and in [8] was not below 80% each time. Moreover, the pest or weed control at 200 ppm in [10], in series [1], in series [11], in series [4], in series [5] and in series [6] was not below 80% throughout. Further, in [7], the pest or weed control at 200 ppm is not below 80%.
For `CO/C=C(\Oc1cc(-n2ccc(C)n2)c(Cl)cc1C)C(=O)OC` [Compound E-28, methyl (Z)-2-[4-chloro-2-methyl-5-(3-methylpyrazol-1-yl)phenoxy]-3-methoxy-prop-2-enoate], the inhibition of growth at 20 ppm in series [9], in [2], in [3] and in [8] was not below 80% in each case. The pest or weed control at 200 ppm in series [10], in series [4], in series [5] and in [6] was not below 80% throughout.
As for `CO/C=C(\Oc1cc(-n2cc(C#N)cn2)ccc1C)C(=O)OC` [Compound E-55, methyl (Z)-2-[5-(4-cyanopyrazol-1-yl)-2-methyl-phenoxy]-3-methoxy-prop-2-enoate], the inhibition of growth at 20 ppm in series [12], in series [2], in [3] and in [8] was not below 80% each time. In addition, the pest or weed control at 200 ppm in series [6] is not below 80%.
On to `CO/C=C(\Oc1cc(-n2ccc(COC)n2)ccc1C)C(=O)OC` [Compound E-77, methyl (Z)-3-methoxy-2-[5-[3-(methoxymethyl)pyrazol-1-yl]-2-methyl-phenoxy]prop-2-enoate], for which the melting point lay in the range of 107 to 110 °C. The inhibition of growth at 20 ppm in series [9] was not below 80%. The pest or weed control at 200 ppm in series [10] was not below 80%. In series [2], this compound had an inhibition of growth at 20 ppm not below 80%. Further, the inhibition of growth at 20 ppm in series [3] was not below 80%. In addition, the pest or weed control at 200 ppm in [13] (setting [14]) was not below 50%. In addition, the pest or weed control at 200 ppm in [4] is not below 80%. In addition, the pest or weed control at 200 ppm in series [5] is not below 80%. In series [6], the pest or weed control at 200 ppm was not below 80%. The same compound registered an inhibition of growth at 20 ppm in series [8] not below 80%.
Regarding `CCc1ccn(-c2ccc(C)c(O/C(=C\OC)C(=O)OC)c2)n1` [Compound E-91, methyl (Z)-2-[5-(3-ethylpyrazol-1-yl)-2-methyl-phenoxy]-3-methoxy-prop-2-enoate], the inhibition of growth at 20 ppm in series [12], in series [9], in series [2], in series [3] and in series [8] was not below 80% in each case. Besides, the values for the pest or weed control at 200 ppm in [10], in series [13] (setting [14]) and in series [6] were not below 80%, not below 50% and not below 80%, respectively.
For the compound `CO/C=C(\Oc1cc(-n2ccc(C3CC3)n2)ccc1Br)C(=O)OC` [Compound E-97, methyl (Z)-2-[2-bromo-5-(3-cyclopropylpyrazol-1-yl)phenoxy]-3-methoxy-prop-2-enoate], the inhibition of growth at 20 ppm in series [12], in series [9], in series [2], in [3] and in [8] was not below 80% throughout. Also, the pest or weed control at 200 ppm was not below 80% in series [10], not below 50% in series [13] (setting [14]), not below 80% in series [11] and not below 80% in series [6].
`CO/C=C(\Oc1cc(-n2ccc(C3CCCCC3)n2)cc(C)c1C)C(=O)OC` [Compound E-110, methyl (Z)-2-[5-(3-cyclohexylpyrazol-1-yl)-2,3-dimethyl-phenoxy]-3-methoxy-prop-2-enoate] came in with a melting point of 90 to 93 °C. The compound also gave an inhibition of growth at 20 ppm in [9] not below 80%. For the same compound, in series [1], the pest or weed control at 200 ppm is not below 80%. The inhibition of growth at 20 ppm in series [2] is not below 80%. The same compound showed an inhibition of growth at 20 ppm in [3] not below 80%. The pest or weed control at 200 ppm in [11] was not below 80%. Further, the pest or weed control at 200 ppm in [4] is not below 80%. In series [5], this compound returned a pest or weed control at 200 ppm not below 80%. The pest or weed control at 200 ppm in [6] was not below 80%. The pest or weed control at 200 ppm in series [7] was not below 80%. This compound yielded an inhibition of growth at 20 ppm in series [8] not below 80%.
`CO/C=C(\Oc1cc(-n2ccc(C3CCCCC3)n2)c(Cl)cc1C)C(=O)OC` [Compound E-115, methyl (Z)-2-[4-chloro-5-(3-cyclohexylpyrazol-1-yl)-2-methyl-phenoxy]-3-methoxy-prop-2-enoate] came in with a melting point of 127 to 129 °C. Besides, the inhibition of growth at 20 ppm in series [9] was not below 80%. The pest or weed control at 200 ppm in series [10] is not below 80%. In addition, the inhibition of growth at 20 ppm in series [2] is not below 80%. The inhibition of growth at 20 ppm in [3] is not below 80%. Besides, the pest or weed control at 200 ppm in [5] was not below 80%. Besides, in series [6], the pest or weed control at 200 ppm is not below 80%. The compound also came in with an inhibition of growth at 20 ppm in series [8] not below 80%.
The compound `CO/C=C(\Oc1cc(-n2ncc(C(F)(F)F)n2)ccc1C)C(=O)OC` [Compound F-6, methyl (Z)-3-methoxy-2-[2-methyl-5-[4-(trifluoromethyl)triazol-2-yl]phenoxy]prop-2-enoate] returned a melting point of 107 to 109 °C. In series [9], the inhibition of growth at 20 ppm was not below 80%. In series [10], this compound returned a pest or weed control at 200 ppm not below 80%. Besides, the pest or weed control at 200 ppm in series [1] is not below 80%. Moreover, the inhibition of growth at 20 ppm in series [2] is not below 80%. For the same compound, the inhibition of growth at 20 ppm in [3] was not below 80%. This compound had a pest or weed control at 0.6 ppm in series [13] (Phakopsora pachyrhizi (Soybean rust), 0.6 ppm) of 0%. This compound also displayed a pest or weed control at 2 ppm in series [13] (Phakopsora pachyrhizi (Soybean rust), 2 ppm) of 0%. Besides, the pest or weed control at 6 ppm in [13] (Phakopsora pachyrhizi (Soybean rust), 6 ppm) stood at 20%. The compound also displayed a pest or weed control at 20 ppm in [13] (Phakopsora pachyrhizi (Soybean rust), 20 ppm) of 80%. The compound also showed a pest or weed control at 60 ppm in series [13] (Phakopsora pachyrhizi (Soybean rust), 60 ppm) of 100%. Moreover, the pest or weed control at 200 ppm in [13] (Phakopsora pachyrhizi (Soybean rust), read-out: control (%)) was 100%. Also, the pest or weed control at 200 ppm in series [11] is not below 80%. Also, the pest or weed control at 200 ppm in series [4] was not below 80%. Further, the pest or weed control at 200 ppm in series [7] was not below 80%. This compound also returned an inhibition of growth at 20 ppm in series [8] not below 80%.
